Data reported in patent publication US8637038B2, “Methods for inhibiting allograft rejection” (Rigel Pharmaceuticals, Inc., priority 2011, dated 2014).
Like-named read-outs stand apart in the source and are kept apart here.

What was measured:
[1] = system: Lew recipients of heterotopic BN heart transplants; assay: Five-day heart allograft study: H+E histology, ISHLT rejection classification; assay type: in vivo, rat; conditions: HD (Compound I 60 mg/kg BID, Compound III 20 mg/kg BID, Tac 4 mg/kg QD); five days after transplantation
Source text: Male Brown Norway (BN) and Lewis (Lew) rats weighing 350 g were purchased from Harlan (Indianapolis, Ind.) and were housed under conventional conditions. All animals were fed standard rat chow and water ad libitum and received humane care in compliance with the Principles of Laboratory Animal Care formulated by the National Society for Medical Research and the Guide for the care and Use of Laboratory Animals published by the National Institutes of Health (National Institutes of Health publication No. 85-23, revised 1985). Allogeneic (BN-to-Lew) and syngeneic (Lew-to-Lew) heterotopic heart transplantations were performed as described previously (Ono et al., J. Thorac. Cardiovasc. Surg. 57:225-229, 1969). In brief, rats were anaesthetized using 2% isoflurane. The donor received an intravenous bolus of 500 I.U. heparin. Cardiac arrest was achieved using 20 ml Bretschneider solution (Custodiol, Dr. F. Koehler Chemie, Bensheim, Germany). […] Heart-beating score was assessed directly after transplantation for each animal from score 0 (no palpable contraction) to 4 (strong and regular contraction). Only animals with beating scores of 4 were included into the study. Compound I and Compound III were provided by Rigel (South San Francisco, Calif.) and Tacrolimus was provided by Astellas (Munich, Germany). All drugs were administrated orally each in two different concentrations: Compound I LD (15 mg/kg BID; n=6) and HD (60 mg/kg BID; n=6); […] Administration of all drugs was performed every day at the same time points. Tacrolimus was applied only once a day (QD) every 24 hours. During administration of Compound I (BID) and Compound III (BID) a 12 hour pause was kept in between each drug application. Lew recipients of heterotopic BN heart transplants were randomly assigned to their group. […] An untreated syngeneic transplant group Lew-Lew was generated as control. Grafts were recovered five days after transplantation and fixed in 4% paraformaldehyde (Science Services, Munich, Germany), dehydrated and embedded in paraffin. […] Waldeck, Carl Roth GmbH, Munster, Germany) and examined by standard light microscopy. The extent of acute cardiac graft rejection in H+E staining was examined by an experienced pathologist according to the 2004 ISHLT working formulation (Stewart et al., J. Heart Lung Transplant. 24:1710-1720, 2005).

[2] = system: Lew recipients of heterotopic BN heart transplants; assay: Five-day heart allograft study: donor-specific IgM antibodies by flow cytometry; assay type: in vivo, rat; conditions: LD and HD groups; five days; p<0.001
Method: (§1) Compound I and Compound III were provided by Rigel (South San Francisco, Calif.) and Tacrolimus was provided by Astellas (Munich, Germany). All drugs were administrated orally each in two different concentrations: Compound I LD (15 mg/kg BID; n=6) and HD (60 mg/kg BID; n=6); Compound III LD (5 mg/kg BID; n=6) and HD (20 mg/kg BID; n=6); Tac LD (1 mg/kg QD; n=6) and HD (4 mg/kg QD; n=6). Administration of all drugs was performed every day at the same time points. Tacrolimus was applied only once a day (QD) every 24 hours. During administration of Compound I (BID) and Compound III (BID) a 12 hour pause was kept in between each drug application.
(§2) Lew recipients of heterotopic BN heart transplants were randomly assigned to their group. Animals were either left untreated (groups 1 and 2; see Table 1,5-day study) or received their group specific medication (groups 3-8; see Table 1,5-day study) by oral application. An untreated syngeneic transplant group Lew-Lew was generated as control.
Donor splenocytes were isolated and erythrocytes were lysed using the ACK buffer (Lonza, Walkersville, Md.). Sera from recipient rats were decomplemented and equal amounts of sera and splenocyte suspensions (5×10^6 cells/ml) were incubated for 30 minutes at room temperature. IgM antibodies were stained by incubation of the cells with a conjugated mouse antibody specific for the Fc-portion of rat IgM (Monoclonal Anti-rat IGM, Clone RTM-32, Sigma) followed by incubation with a 488-conjugated secondary antibody (Invitrogen). Cells were washed with PBS, fixed with 2% paraformaldehyde (Science Services), and analyzed on a FACSCalibur™ system (BD Biosciences). Fluorescence data were expressed as mean fluorescence intensity (MFI) using Flowjo software (Tree Star, Inc., Ashland, Oreg.).

[3] = system: JAK1/3; assay: IL-2-dependent human primary T cell proliferation; assay type: cell-based
Method: The activity of Compound III and Compound I was assessed in a panel of cell-based assays. Compound III and Compound I are selective inhibitors of JAK1/3-dependent signaling. Data for a non-selective JAK inhibitor (Compound IV) is shown for reference. Mixed lymphocyte reactions (MLRs) were performed by incubating freshly prepared naive human peripheral blood lymphocytes from one donor with CD80+/CD86+ mature Dendritic Cells derived from a different donor for 5 days. The percentage of CD3+/CD71+ (anti-CD3-APC, Clone HIT3a, anti-CD 71-FITC, Clone M-A712; BD Biosciences, San Jose, Calif.) proliferating cells was assessed by fluorescence-activated cell sorting (FACS; BD Bioscience). Interleukin-2 (IL-2)-dependent human primary T cell proliferation was assessed using CellTiter-Glo® Luminescent Cell Viability Assay (Promega, Madison, Wis.). STAT phosphorylation induced by different cytokines in human primary T cells was measured by intracellular FACS analysis (anti-pY694-STAT5 AlexaFluor488, anti-pY701-STAT1 AlexaFluor488, and anti-pY693-STAT4 AlexaFluor488; BD Biosciences). […] Interferon-γ (IFN-γ) signaling was assessed in the U937 monocytic cell line by measuring ICAM-1 surface expression by FACS (ICAM-1-APC, BD Bioscience).

[4] = system: JAK1/2; assay: IFN-γ U937 ICAM-1 surface expression; assay type: cell-based; conditions: for EC50: Homo sapiens
Method: The activity of Compound III and Compound I was assessed in a panel of cell-based assays. Compound III and Compound I are selective inhibitors of JAK1/3-dependent signaling. Data for a non-selective JAK inhibitor (Compound IV) is shown for reference. Mixed lymphocyte reactions (MLRs) were performed by incubating freshly prepared naive human peripheral blood lymphocytes from one donor with CD80+/CD86+ mature Dendritic Cells derived from a different donor for 5 days. The percentage of CD3+/CD71+ (anti-CD3-APC, Clone HIT3a, anti-CD 71-FITC, Clone M-A712; BD Biosciences, San Jose, Calif.) proliferating cells was assessed by fluorescence-activated cell sorting (FACS; BD Bioscience). Interleukin-2 (IL-2)-dependent human primary T cell proliferation was assessed using CellTiter-Glo® Luminescent Cell Viability Assay (Promega, Madison, Wis.). STAT phosphorylation induced by different cytokines in human primary T cells was measured by intracellular FACS analysis (anti-pY694-STAT5 AlexaFluor488, anti-pY701-STAT1 AlexaFluor488, and anti-pY693-STAT4 AlexaFluor488; BD Biosciences). STAT phosphorylation induced by different cytokines was performed in whole blood after red blood cell lysis (Lyse/Fix buffer, BD Biosciences) and methanol permeabilization. Interferon-γ (IFN-γ) signaling was assessed in the U937 monocytic cell line by measuring ICAM-1 surface expression by FACS (ICAM-1-APC, BD Bioscience).

[5] = Five-day heart allograft study: side effects (clinical chemistry); assay type: in vivo, rat; conditions: five days
Method: as §1, §2
EDTA samples and sera were taken five days after transplantation for differential blood count, BUN, Creatinine, Cholesterol, HDL, LDL, Triglycerides, AST, and ALT, respectively. Analyses were performed by standard clinical chemistry procedures.

COc1cc(Nc2ncc(C)c(Nc3ccc4oc(=O)[nH]c4c3)n2)cc(C)c1F [Compound I, 5-(2-(4-fluoro-3-methoxy-5-methylphenylamino)-5-methylpyrimidin-4-ylamino)benzo[d]oxazol-2(3H)-one]
hearts with ISHLT score of 0 [1]: 17%
hearts with ISHLT score of 1 [1]: 50%
hearts with ISHLT score of 2 [1]: 17%
hearts with ISHLT score of 3 [1]: 17%
donor-specific IgM antibodies (DSA) vs. no medication [2]: significant suppression
EC50 ([3]; upstream kinases JAK1/3, read-out: IL-2 T cell proliferation EC50): 21 ± 7 nM
inhibition of JAK1/2-dependent ICAM-1 expression in U937 cells in response to IFN-γ [4]: limited inhibition
EC50 ([4]; U-937, upstream kinases JAK1/2, read-out: IFN-γ U937 ICAM-1 EC50): 417 ± 211 nM

COc1cc(Nc2ncc(C)c(Nc3ccc4oc(=O)[nH]c4c3)n2)cc(C)c1C [Compound III, 5-(2-(3-methoxy-4,5-dimethylphenylamino)-5-methylpyrimidin-4-ylamino)benzol[d]oxazol-2-(3H)-one]
hearts with ISHLT score of 0 [1]: 33%
hearts with ISHLT score of 1 [1]: 50%
hearts with ISHLT score of 2 [1]: 17%
hearts with ISHLT score of 3 [1]: no scores of 3
donor-specific IgM antibodies (DSA) vs. no medication [2]: significant suppression
EC50 ([3]; read-out: IL-2 T cell proliferation EC50): 30 ± 13 nM
serum HDL, mean ([5]; HD (Compound I 60 mg/kg BID, Compound III 20 mg/kg BID, Tac 4 mg/kg QD), no medication mean 26.0): 46.3 mg/dL
serum LDL, mean ([5]; LD (Compound III 5 mg/kg BID, Tac 1 mg/kg QD)): 19.6 mg/dL
inhibition of JAK1/2-dependent ICAM-1 expression in U937 cells in response to IFN-γ [4]: limited inhibition
EC50 ([4]; U-937, read-out: IFN-γ U937 ICAM-1 EC50): 791 ± 352 nM
